Data as given in patent US10456389B2, “Extended release nicotinamide formulation” (Ferring B.V., priority 2013, dated 2019).
In brackets after ≈: the same amount, converted by molar mass.

Legend:
[1] = Release testing, USP paddle apparatus, purified water, UV at 260 nm; type: physicochemical; settings: raw material, 0.2 g in 100 ml water; FIG. 1
Description: Dissolution experiments were performed in a Sotax AT7 Dissolution apparatus, USP paddle.
All assays were performed in a Shimadzu UV-1700 spectrophotometer.
Release testing was performed in a USP paddle apparatus using 500 ml purified water as release medium and operated at 100 rpm. The results were quantified by a Shimadzu spectrophotometer at 260 nm after dilution 1:50.
To assess whether the ethylcellulose film coating was able to delay the release of nicotinamide, the release from the coated 95% granules (RD1302-2-C1) was tested and compared to the release from the raw material. Nicotinamide from the raw material (0.2 g in 100 ml water) was dissolved very quickly and within 5 minutes. […] Release of the remaining nicotinamide started later than 30 minutes, and after 3 hours 85% had been released. This means that release of nicotinamide can be released over 3 hours by applying an ethylcellulose film.

[2] = cited from earlier work

NC(=O)c1cccnc1 [Nicotinamide]
Time until dissolved [1]: ≤ 5 min
Solubility in 96% ethanol ([2]; 96% ethanol): 0.66 g/mL (≈ 5400 mM)
Solubility in water ([2]; water, 20° C.): 0.69 g/mL (≈ 5650 mM)
